This is an account of results in patent US8063225B2, “Tricyclic compound derivatives useful in the treatment of neoplastic diseases, inflammatory disorders and immunomodulatory disorders” (Chembridge Corporation, priority 2006, dated 2011).

What is called IC50 is the concentration needed to halve the response being measured. The low end stands for greater potency, the high end for weaker potency.

Assay [1] concerns the target T1, IGF1R tyrosine kinase (Homo sapiens, UniProt P08069).
T1 construct: 6×His- or GST-tagged kinase domain fragments of the corresponding RTKs expressed in baculovirus system; host or cells: baculovirus system
Nature of the assay: IGF1R tyrosine kinase assay (Kinase-Glo ATP depletion or PT66/PT100 AlphaScreen). Particulars: biochemical tyrosine kinase assay. The procedure: (§1) To determine inhibition of several tyrosine kinases, such as IGF1R, InsR, Alk, TrkA and Jak2, kinase assays are conducted using either Kinase-Glo (Promega) or AlphaScreen (PerkinElmer) kinase assay platforms. The Kinase-Glo Luminescent Kinase Assay is a homogeneous method for measuring kinase activity by determining the amount of ATP remaining after a kinase reaction. The luminescent signal is proportional to the amount of ATP and inversely proportional to the amount of kinase activity. Tyrosine kinase PT66 AlphaScreen Assay is a high-sensitivity homogeneous, anti-phosphotyrosine antibody-mediated luminescent proximity method measuring, incorporation of phosphate in synthetic poly(Glu-Tyr) substrate. The kinase preparations used consist of purified recombinant, 6×His- or GST-tagged kinase domain fragments of the corresponding RTKs expressed in baculovirus system.
(§2) The IGF1R tyrosine kinase is assayed in Kinase-Glo ATP depletion assay using the synthetic polymer poly(Glu-Tyr, 4:1) (Sigma Chemicals) as a phosphoacceptor substrate. Each reaction mixture consists of a total volume of 10 μl and contains 40 ng of the enzyme, 5 μg of poly(Glu-Tyr), 10 μM of ATP and variable concentrations of test compounds. The mixtures also contain 50 mM Tris-HCl, pH 7.5; 5 mM MgCl2; 5 mM MnCl2; 2 mM DTT and 0.01% Tween 20. The reaction mixtures are incubated at 37° C. for 60 minutes and residual concentration of ATP in the mixture is determined by adding luciferase-containing Kinase-Glo (Promega) development reagent and counting luminescence levels using Fusion Universal Microplate Analyzer (PerkinElmer). Tested compounds are dissolved in dimethyl sulfoxide to a stock concentration of 10 mM and are typically evaluated in the assay at eight concentrations in 1 nM to 20 μM range, each in quadruplicate. […] IC50 values are derived by non-linear regression analysis using Prism 3.0 software (Graphpad Software). Other tyrosine kinases are assayed according to the same protocol after titrating amount of the enzyme to provide optimal signal-to-noise ratio and no more than 30% of total ATP consumption in the reaction conditions used.
(§3) The IGF1R tyrosine kinase is assayed in Phosphotyrosine (PT66 or PT 100) AlphaScreen chemiluminescent assay (PerkinElmer) according to the manufacturerer's recommendations. Each kinase reaction mixture consists of a total volume of 15 μl and contains 0.1-1 ng of the enzyme, 7 ng of biotinylated poly(Glu-Tyr) (Cis-Bio), 10 μM of ATP and variable concentrations of test compounds. The mixtures also contain 50 mM Tris-HCl, pH 7.5; 5 mM MgCl2; 5 mM MnCl2; 2 mM DTT and 0.01% Tween 20. The reaction mixtures are incubated at room temperature for 30 minutes. Ten (10) μl of the mixture of […] and donor beads (as supplied by the manufacturer) is then added to the reaction and the incubation is continued for an additional 60 minutes.

Assay [2] addresses T2, InsR (Homo sapiens, UniProt P06213).
T2 construct: 6×His- or GST-tagged kinase domain fragments of the corresponding RTKs expressed in baculovirus system; host or cells: baculovirus system
Nature of the assay: Tyrosine kinase assay (Kinase-Glo or AlphaScreen), InsR. The conditions noted are these: biochemical tyrosine kinase assay. The procedure:
as §1, §2, §3

For assay [3], the target named is T3, Alk (Homo sapiens, UniProt Q9UM73).
T3 construct: 6×His- or GST-tagged kinase domain fragments of the corresponding RTKs expressed in baculovirus system; host or cells: baculovirus system
The experiment in a line: Tyrosine kinase assay (Kinase-Glo or AlphaScreen), Alk. The conditions noted are these: biochemical tyrosine kinase assay. The procedure:
as §1, §2, §3
A general note: Kinase-Glo measures the ATP left after a reaction by luminescence.

Assay [4] deals with T4, Jak2 (Homo sapiens, UniProt O60674).
T4 construct: 6×His- or GST-tagged kinase domain fragments of the corresponding RTKs expressed in baculovirus system; host or cells: baculovirus system
The experiment in a line: Tyrosine kinase assay (Kinase-Glo or AlphaScreen), Jak2. The conditions noted are these: biochemical tyrosine kinase assay. The procedure: as §1, §2, §3

Assay [5] has as its system Ba/F3. The experiment in a line: Cell proliferation inhibition, Cell Titer-Glo, Ba/F3. Type of assay: cell-based. Particulars: Mus musculus, BaF3; cell proliferation assay, Ba/F3 cells. The source says:
(§4) IGF1R and other tyrosine kinase inhibitors can inhibit the proliferation of certain cancer cell lines indicating their possible therapeutic utility for treating the corresponding cancer types. Cancer cell lines of interest and control normal lines, including CHO, HEK293, BA/F3, COLO205, PC3, DU145, MCF7, Panc1, ACHN, Hep G2, H460, K562, TT, U87-MG, CAOV-3, SK-MEL5, Karpas 299 and human multiple myeloma cell lines H929, MM1s, MM1r, UTMC2, CPM2, KMS11, My5, KMS12PE, My7, JJN3, KMS18, U266, SKMM2, RPMI-8226 are plated in white, clear-bottomed 384-well cell culture plates at 2500-5000 cells per well and supplied with dilutions of tested compounds After a desired period of time (typically 3 days), the number of viable cells is quantitated by using Cell Titer-Glo Luminescent Cell Viability Assay (Promega), a cell proliferation assay system based on detection of total amount of ATP present as a measure of cell metabolic activity. The plated cells are mixed with the Cell Titer-Glo developing reagent and counted in a luminescence multiwell plate reader according to the standard manufacturer's protocol to generate IC50 curves for cell proliferation inhibition. Results are typically reported as percent of growth (% viability =(OD72h(compound)−ODday0))/(OD72h(no compound)−ODday0). Alternatively, viable cells are quantitated by using the conventional colorimetric MTT assay. The MTT assay is based on the cleavage of the yellow tetrazolium salt MTT to purple formazan crystal by metabolic active cells. The formazan is then solubilized, and the concentration determined by optical density at 570 nm. The cells plated and incubated with a compound as described above are supplemented with the solution of MTT and incubated for 2-3 hours. The growth medium is removed and dimethyl sulfoxide is added into each well to dissolve the formazan. The absorbance is measured on an ELISA plate reader with a test wavelength of 570 nm and a background subtraction wavelength of 630 nm to obtain sample signal (OD570-OD630). […] The results are reported in terms of IC50 value for a particular compound and a cell line in the standard 3-day proliferation assay using Cell Titer-Glo. […] The results are reported in terms of IC50 value for a particular compound and a cell line in the standard 3-day proliferation assay using MTT assay.
On the technique in general: Cellular ATP, detected with luciferase, serves as a proxy for viable cell number.

Assay [6] concerns Karpas-299. Nature of the assay: Cell proliferation inhibition, Cell Titer-Glo, Karpas-299. The conditions noted are these: Homo sapiens; cell proliferation assay, Karpas-299 cells. Type of assay: cell-based.
Source text: as §4

In assay [7] the test system is K562. The experiment in a line: Cell proliferation inhibition, Cell Titer-Glo, K562. Type of assay: cell-based. Particulars: Homo sapiens; cell proliferation assay, K562 cells.
Source text: as §4

T4 sequence (O60674 849-1124 limits assumed, species assumed): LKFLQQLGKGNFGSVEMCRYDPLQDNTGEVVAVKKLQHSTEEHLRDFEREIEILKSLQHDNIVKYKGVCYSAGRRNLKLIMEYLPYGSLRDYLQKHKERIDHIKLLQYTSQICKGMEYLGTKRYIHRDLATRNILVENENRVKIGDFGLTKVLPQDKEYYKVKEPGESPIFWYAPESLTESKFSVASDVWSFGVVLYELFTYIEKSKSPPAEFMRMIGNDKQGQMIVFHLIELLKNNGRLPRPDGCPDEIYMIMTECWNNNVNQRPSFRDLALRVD
T2 sequence (P06213 1023-1298 limits assumed, species assumed): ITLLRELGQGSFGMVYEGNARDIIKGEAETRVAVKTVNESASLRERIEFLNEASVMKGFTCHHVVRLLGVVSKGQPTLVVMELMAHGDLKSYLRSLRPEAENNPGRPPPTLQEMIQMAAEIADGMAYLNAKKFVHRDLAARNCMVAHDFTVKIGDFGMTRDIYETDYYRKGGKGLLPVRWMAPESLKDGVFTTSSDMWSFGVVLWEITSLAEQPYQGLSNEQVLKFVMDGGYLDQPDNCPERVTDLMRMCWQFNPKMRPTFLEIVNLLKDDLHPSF
T1 sequence (P08069 999-1274 limits assumed): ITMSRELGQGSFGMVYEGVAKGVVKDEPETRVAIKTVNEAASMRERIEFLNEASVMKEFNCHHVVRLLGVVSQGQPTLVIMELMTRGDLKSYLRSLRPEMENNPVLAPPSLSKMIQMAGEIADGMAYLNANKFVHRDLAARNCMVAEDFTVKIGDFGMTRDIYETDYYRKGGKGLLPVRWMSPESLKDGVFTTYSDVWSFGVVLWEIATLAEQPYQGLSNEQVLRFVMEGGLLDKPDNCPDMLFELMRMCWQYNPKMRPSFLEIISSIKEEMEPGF
T3 sequence (Q9UM73 1116-1392 limits assumed, species assumed): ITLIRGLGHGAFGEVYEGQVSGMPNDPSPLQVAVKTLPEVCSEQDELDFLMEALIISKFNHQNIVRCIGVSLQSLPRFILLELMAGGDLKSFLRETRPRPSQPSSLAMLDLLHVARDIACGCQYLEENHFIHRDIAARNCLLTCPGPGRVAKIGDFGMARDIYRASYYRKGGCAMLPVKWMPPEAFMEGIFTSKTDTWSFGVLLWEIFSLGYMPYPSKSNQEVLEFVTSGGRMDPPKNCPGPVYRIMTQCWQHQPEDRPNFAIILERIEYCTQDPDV

With `Cc1ccc(Cl)cc1OC[C@H](O)CNc1ccnc(O)c1-c1nc2cc3c(cc2[nH]1)C(=O)N(C1CCN(C)CC1)C3=O` [compound 55], the IC50 in assay [1] is below 0.5 µM; in assay [2], 0.5 to 5 µM; in assay [3], 0.5 to 5 µM; in assay [4], 0.5 to 5 µM; in assay [5], 0.5 to 5 µM; in assay [6] it was 0.5 to 5 µM. In assay [7], this compound came in with an IC50 of 0.5 to 5 µM.
As to `CSCc1cc(C)cc(C)c1OC[C@H](O)CNc1cc[nH]c(=O)c1-c1nc2cc3c(cc2[nH]1)C(=O)N(C1CCN(C)CC1)C3=O` [compound 81], the IC50 in assay [1] lay in the range of 0.5 to 5 µM; in assay [2], 5 to 15 µM; in assay [3] it was 0.5 to 5 µM; in assay [4], 5 to 15 µM; in assay [5], 5 to 15 µM; in assay [6] it was 5 to 15 µM. Besides, the half-inhibitory concentration (IC50) in assay [7] is above 15 µM.
On to `O=C1CCCN1CCCN1C(=O)c2cc3nc(-c4c(NC[C@@H](O)c5cccc(Cl)c5)cc[nH]c4=O)[nH]c3cc2C1=O` [compound 47], for which the IC50 in assay [1] was in the range of 0.5 to 5 µM; in assay [2] it was 0.5 to 5 µM; in assay [3], 5 to 15 µM; in assay [4] it was 0.5 to 5 µM; in assay [5] it was 5 to 15 µM; in assay [6], 5 to 15 µM.
On to `Cc1c(Cl)cccc1OC[C@H](O)CNc1cc[nH]c(=O)c1-c1nc2c(C)c3c(cc2[nH]1)C(=O)N(C1CCN(C)CC1)C3=O` [compound 121], for which the IC50 was 0.5 to 5 µM in assay [1]; 0.5 to 5 µM in assay [2]; 0.5 to 5 µM in assay [3]; 0.5 to 5 µM in assay [4]; 0.5 to 5 µM in assay [5]; 5 to 15 µM in assay [6].
For the compound `O=C1c2cc3nc(-c4c(NC[C@@H](O)c5cccc(Cl)c5)cc[nH]c4=O)[nH]c3cc2C(=O)N1CCc1cccnc1` [compound 27], the IC50 in assay [1], in assay [2], in assay [3] and in assay [4] was above 15 µM each time.
As to `Cc1c(Cl)cccc1OC[C@H](O)CNc1cc[nH]c(=O)c1-c1nc2cc3c(cc2[nH]1)C(=O)N(CCCN1CCCC1)C3=O` [compound 115], the IC50 in assay [1] is below 0.5 µM; in assay [2] it was below 0.5 µM; in assay [3], 0.5 to 5 µM; in assay [4], 0.5 to 5 µM; in assay [5], above 15 µM; in assay [6], 5 to 15 µM.
As to `COCCCN1C(=O)c2cc3nc(-c4c(NC[C@@H](O)COc5ccc(C)cc5C)cc[nH]c4=O)[nH]c3cc2C1=O` [compound 109], the IC50 in assay [1] is above 15 µM; in assay [2], above 15 µM; in assay [3], above 15 µM; in assay [4] it was above 15 µM; in assay [5], above 15 µM; in assay [6], 0.5 to 5 µM.
On to `Cc1c2c(cc3[nH]c(-c4c(NC[C@@H](O)COc5c(F)ccc(Cl)c5F)cc[nH]c4=O)nc13)C(=O)N(C1CCN(C)CC1)C2=O` [compound 122], for which the IC50 in assay [1] was below 0.5 µM; in assay [2] it was 0.5 to 5 µM; in assay [3], 5 to 15 µM; in assay [4], 0.5 to 5 µM; in assay [5], above 15 µM; in assay [6] it was above 15 µM.
Regarding `O=C1c2cc3nc(-c4c(NC[C@@H](O)c5cccc(Cl)c5)cc[nH]c4=O)[nH]c3cc2C(=O)N1CCc1c[nH]cn1` [compound 9], the IC50 in assay [1], in assay [2], in assay [3] and in assay [4] was 0.5 to 5 µM in each case.
For `COc1ccc2c(ccn2C[C@H](O)CNc2cc[nH]c(=O)c2-c2nc3cc4c(cc3[nH]2)CN(C2CCN(C)CC2)C4=O)c1` [compound 170], the IC50 in assay [1] lay within 5 to 15 µM; in assay [2], 0.5 to 5 µM; in assay [3] it was 5 to 15 µM; in assay [4] it was 0.5 to 5 µM.
As to `Cc1ccc(OC[C@H](O)CNc2cc[nH]c(=O)c2-c2nc3cc4c(cc3[nH]2)C(=O)N(CCCN2CCCC2)C4=O)c(C)c1` [compound 48], the IC50 in assay [1] was below 0.5 µM; in assay [2], below 0.5 µM; in assay [3], 5 to 15 µM; in assay [4], 0.5 to 5 µM; in assay [5], 0.5 to 5 µM; in assay [6] it was 0.5 to 5 µM.
Consider `O=C1c2cc3nc(-c4c(NC[C@@H](O)c5cccc(Cl)c5)cc[nH]c4=O)[nH]c3cc2C(=O)N1CC(O)CO` (some centres unmarked) [compound 46], for which the IC50 is below 0.5 µM in assay [1]; 0.5 to 5 µM in assay [2]; above 15 µM in assay [3]; above 15 µM in assay [4]; 5 to 15 µM in assay [5]; 5 to 15 µM in assay [6].
`COCCN1CCC(CN2C(=O)c3cc4nc(-c5c(NC[C@@H](O)c6cccc(Cl)c6)cc[nH]c5=O)[nH]c4cc3C2=O)CC1` [compound 24]: the IC50 in assay [1] was below 0.5 µM; in assay [2], below 0.5 µM; in assay [3], 0.5 to 5 µM; in assay [4], 0.5 to 5 µM.
`O=C1c2cc3nc(-c4c(NC[C@@H](O)c5cccc(Cl)c5)cc[nH]c4=O)[nH]c3cc2C(=O)N1C(CO)CO` [compound 25]: the IC50 in assay [1] was below 0.5 µM; in assay [2], below 0.5 µM; in assay [3] it was 5 to 15 µM; in assay [4], below 0.5 µM.
Regarding `O=C1c2cc3nc(-c4c(NC[C@@H](O)COc5c(F)ccc(Cl)c5F)cc[nH]c4=O)[nH]c3cc2C(=O)N1CC1CCN(CCO)CC1` [compound 120], the half-maximal inhibitory concentration (IC50) in assay [1] is below 0.5 µM; in assay [2], below 0.5 µM; in assay [3], 0.5 to 5 µM; in assay [4], 0.5 to 5 µM; in assay [5], 0.5 to 5 µM; in assay [6], 0.5 to 5 µM.
Turning to `O=C1c2cc3nc(-c4c(NC[C@@H](O)c5cccc(Cl)c5)cc[nH]c4=O)[nH]c3cc2C(=O)N1CCCn1ccnc1` [compound 45], the half-inhibitory concentration (IC50) in assay [1] lay in the range of 0.5 to 5 µM; in assay [2] it was 0.5 to 5 µM; in assay [3], 0.5 to 5 µM; in assay [4], 0.5 to 5 µM; in assay [5], 5 to 15 µM; in assay [6], 5 to 15 µM.
On to `CN1CCC(N2C(=O)c3cc4nc(-c5c(NCC(O)c6ccncc6)cc[nH]c5=O)[nH]c4cc3C2=O)CC1` (centres unmarked) [compound 7], for which the IC50 in assay [1] was 0.5 to 5 µM; in assay [2], 5 to 15 µM; in assay [3], above 15 µM; in assay [4] it was 0.5 to 5 µM.
